Measured values: patent publication US9725465B2, “Biaryl acetamide compounds and methods of use thereof” (Ambit Biosciences Corporation, priority 2013, dated 2017)

Experiments:
FLT3 kinase = FLT3 kinase (Homo sapiens (Human), UniProt P36888); assay: Competition binding assay (Kd), FLT3; details: competition binding assay
KIT kinase = KIT kinase (Homo sapiens (Human), UniProt P10721); assay: Competition binding assay (Kd), KIT; details: competition binding assay
In short: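 Kinase, as T7 phage fusion or HEK-293-expressed DNA-tagged protein, competed off immobilised ligand beads by test compound (eleven-point threefold dilutions, from 100× DMSO stocks). Eluted kinase quantified by qPCR to derive Kd; DMSO used as control.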

FLT3-ITD = FLT3-ITD (Homo sapiens (Human), UniProt P36888, INS600HVDFREYEYD); assay: pFLT3 MSD assay, Ba/F3 FLT3-ITD; format: cell-based; details: Ba/F3 FLT3-ITD cells, 2 hours, read-out: BaF3-FLT3-ITD pFlt3 IC50
Chain of FLT3-ITD (P36888 other isoform, or with tags, fused parts or gaps limits assumed, stated change not applied): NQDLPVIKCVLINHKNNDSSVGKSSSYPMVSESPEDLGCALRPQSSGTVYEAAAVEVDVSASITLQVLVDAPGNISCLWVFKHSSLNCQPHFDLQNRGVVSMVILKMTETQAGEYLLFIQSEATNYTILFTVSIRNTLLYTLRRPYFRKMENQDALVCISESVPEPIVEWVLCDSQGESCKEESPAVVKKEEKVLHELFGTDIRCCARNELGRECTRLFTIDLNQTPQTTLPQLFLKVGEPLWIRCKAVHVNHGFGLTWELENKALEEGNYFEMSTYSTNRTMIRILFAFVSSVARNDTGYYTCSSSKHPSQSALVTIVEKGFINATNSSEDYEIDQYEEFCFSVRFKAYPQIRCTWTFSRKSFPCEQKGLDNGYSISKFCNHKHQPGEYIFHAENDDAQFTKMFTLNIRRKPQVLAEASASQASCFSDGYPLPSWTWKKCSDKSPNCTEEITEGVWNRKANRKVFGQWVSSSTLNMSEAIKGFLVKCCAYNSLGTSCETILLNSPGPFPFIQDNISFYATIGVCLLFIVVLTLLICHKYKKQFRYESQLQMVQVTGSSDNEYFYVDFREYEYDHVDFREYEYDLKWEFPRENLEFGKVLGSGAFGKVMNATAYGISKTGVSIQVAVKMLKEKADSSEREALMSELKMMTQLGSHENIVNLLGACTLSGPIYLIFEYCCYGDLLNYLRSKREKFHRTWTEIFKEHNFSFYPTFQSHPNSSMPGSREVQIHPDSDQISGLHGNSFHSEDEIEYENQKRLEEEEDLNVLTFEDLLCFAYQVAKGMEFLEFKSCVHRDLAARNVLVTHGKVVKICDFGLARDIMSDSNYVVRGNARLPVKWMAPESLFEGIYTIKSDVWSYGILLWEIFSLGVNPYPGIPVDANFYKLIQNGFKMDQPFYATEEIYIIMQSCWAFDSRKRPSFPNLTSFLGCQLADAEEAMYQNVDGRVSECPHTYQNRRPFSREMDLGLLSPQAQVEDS

Chain of FLT3 kinase (P36888 27-993): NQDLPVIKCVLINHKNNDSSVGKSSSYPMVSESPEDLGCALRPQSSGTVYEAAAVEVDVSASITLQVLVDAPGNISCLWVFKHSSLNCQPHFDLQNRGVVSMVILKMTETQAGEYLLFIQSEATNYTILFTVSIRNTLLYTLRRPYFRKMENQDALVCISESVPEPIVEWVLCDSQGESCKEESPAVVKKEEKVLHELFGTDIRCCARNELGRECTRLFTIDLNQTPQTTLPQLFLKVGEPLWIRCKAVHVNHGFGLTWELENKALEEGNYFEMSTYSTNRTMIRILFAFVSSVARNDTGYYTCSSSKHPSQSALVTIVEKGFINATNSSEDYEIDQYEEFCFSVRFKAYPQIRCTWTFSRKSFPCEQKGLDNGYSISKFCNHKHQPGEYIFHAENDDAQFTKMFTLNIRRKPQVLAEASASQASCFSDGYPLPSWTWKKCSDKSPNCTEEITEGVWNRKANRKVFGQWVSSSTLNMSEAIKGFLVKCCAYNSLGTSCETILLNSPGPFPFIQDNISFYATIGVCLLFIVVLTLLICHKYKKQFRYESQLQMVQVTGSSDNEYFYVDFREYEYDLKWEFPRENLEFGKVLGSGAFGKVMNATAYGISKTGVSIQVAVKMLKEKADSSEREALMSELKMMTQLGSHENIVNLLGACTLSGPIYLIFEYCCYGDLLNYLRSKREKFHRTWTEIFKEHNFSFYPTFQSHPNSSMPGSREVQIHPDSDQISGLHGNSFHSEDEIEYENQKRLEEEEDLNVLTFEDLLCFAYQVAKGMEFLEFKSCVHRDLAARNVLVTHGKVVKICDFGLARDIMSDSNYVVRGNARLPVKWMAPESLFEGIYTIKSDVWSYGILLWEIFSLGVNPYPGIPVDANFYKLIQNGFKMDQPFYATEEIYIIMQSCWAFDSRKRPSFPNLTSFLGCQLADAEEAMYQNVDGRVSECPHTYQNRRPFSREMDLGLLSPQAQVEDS
Chain of KIT kinase (P10721 26-976): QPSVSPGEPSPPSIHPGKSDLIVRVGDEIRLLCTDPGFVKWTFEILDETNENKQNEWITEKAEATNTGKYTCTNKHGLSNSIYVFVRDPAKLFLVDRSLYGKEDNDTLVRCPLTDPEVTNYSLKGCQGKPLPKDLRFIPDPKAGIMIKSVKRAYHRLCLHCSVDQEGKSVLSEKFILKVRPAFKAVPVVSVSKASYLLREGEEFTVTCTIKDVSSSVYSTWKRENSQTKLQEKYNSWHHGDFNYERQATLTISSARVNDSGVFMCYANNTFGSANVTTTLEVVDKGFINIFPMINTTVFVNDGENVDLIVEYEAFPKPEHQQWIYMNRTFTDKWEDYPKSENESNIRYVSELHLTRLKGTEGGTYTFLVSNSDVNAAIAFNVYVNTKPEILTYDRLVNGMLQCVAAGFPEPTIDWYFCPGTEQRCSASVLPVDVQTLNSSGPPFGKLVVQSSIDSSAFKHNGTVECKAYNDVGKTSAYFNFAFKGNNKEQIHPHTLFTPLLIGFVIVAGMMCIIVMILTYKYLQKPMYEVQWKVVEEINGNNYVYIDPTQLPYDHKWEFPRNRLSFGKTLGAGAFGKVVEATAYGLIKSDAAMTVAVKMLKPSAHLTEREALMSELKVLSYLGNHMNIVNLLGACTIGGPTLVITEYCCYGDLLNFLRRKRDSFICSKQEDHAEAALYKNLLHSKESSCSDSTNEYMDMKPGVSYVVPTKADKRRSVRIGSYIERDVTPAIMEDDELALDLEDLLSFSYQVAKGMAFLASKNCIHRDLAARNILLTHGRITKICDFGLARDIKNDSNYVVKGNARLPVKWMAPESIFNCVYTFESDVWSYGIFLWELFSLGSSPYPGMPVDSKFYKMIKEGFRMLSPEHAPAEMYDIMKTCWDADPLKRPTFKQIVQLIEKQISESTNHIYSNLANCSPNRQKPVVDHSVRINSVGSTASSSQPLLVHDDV

Row | SMILES | Kd (FLT3 kinase) [nM] | Kd (KIT kinase) [nM] | IC50 (FLT3-ITD) [nM]
1 | CN1CCN(C(=O)c2cc3cc(-c4ccc(CC(=O)Nc5cc(C(C)(C)C)on5)cc4)cnc3[nH]2)CC1 [Example 99, N-(5-tert-butylisoxazol-3-yl)-2-[4-[2-(4-methylpiperazine-1-carbonyl)-1H-pyrrolo[2,3-b]pyridin-5-yl]phenyl]acetamide] | < 5 | < 5 | < 10
2 | CN(C)CCNC(=O)c1n[nH]c2ncc(-c3ccc(CC(=O)Nc4cc(C(C)(C)C)on4)cc3)cc12 [Example 100, 5-[4-[2-[(5-tert-butylisoxazol-3-yl)amino]-2-oxo-ethyl]phenyl]-N-[2-(dimethylamino)ethyl]-1H-pyrazolo[3,4-b]pyridine-3-carboxamide] | < 5 | 5 to 20 | < 10
3 | CC(C)(C)c1cc(NC(=O)Cc2ccc(-c3cnc4[nH]nc(-n5nccn5)c4c3)cc2)no1 [Example 101, N-(5-tert-butylisoxazol-3-yl)-2-[4-[3-(triazol-2-yl)-1H-pyrazolo[3,4-b]pyridin-5-yl]phenyl]acetamide] | < 5 | < 5 | < 10
4 | O=C(Cc1ccc(-c2cnc3[nH]nc(OCC(F)F)c3c2)cc1F)Nc1cc(C2(C(F)(F)F)CC2)on1 [Example 102, 2-[4-[3-(2,2-difluoroethoxy)-1H-pyrazolo[3,4-b]pyridin-5-yl]-2-fluoro-phenyl]-N-[5-[1-(trifluoro-methyl)cyclopropyl]isoxazol-3-yl]acetamide] | < 5 | < 5 | < 10
5 | CC(C)(C)c1cc(NC(=O)Cc2ccc(-c3cnc4[nH]nc(-n5ccnn5)c4c3)cc2)no1 [Example 103, N-(5-tert-butylisoxazol-3-yl)-2-[4-[3-(triazol-1-yl)-1H-pyrazolo[3,4-b]pyridin-5-yl]phenyl]acetamide] | < 5 | < 5 | < 10
6 | O=C(Cc1ccc(-c2cnc3[nH]nc(OCCF)c3c2)cc1F)Nc1cc(C2(C(F)(F)F)CC2)on1 [Example 104, 2-[2-fluoro-4-[3-(2-fluoroethoxy)-1H-pyrazolo[3,4-b]pyridin-5-yl]phenyl]-N-[5-[1-(trifluoro-methyl)cyclopropyl]isoxazol-3-yl]acetamide] | < 5 | < 5 | < 10
7 | O=C(Cc1ccc(-c2cnc3[nH]c(C(=O)O)cc3c2)cc1F)Nc1cc(C2(C(F)(F)F)CC2)on1 [Example 106, 5-[3-fluoro-4-[2-oxo-2-[[5-[1-(trifluoromethyl)cyclo-propyl]isoxazol-3-yl]amino]ethyl]phenyl]-1H-pyrrolo[2,3-b]pyridine-2-carboxylic acid] | < 5 | < 5 | 10 to 20
8 | CS(=O)(=O)CCNC(=O)c1cc2cc(-c3ccc(CC(=O)Nc4cc(C5(C(F)(F)F)CC5)on4)c(F)c3)cnc2[nH]1 [Example 107, 5-[3-fluoro-4-[2-oxo-2-[[5-[1-(trifluoromethyl)cyclo-propyl]isoxazol-3-yl]amino]ethyl]phenyl]-N-(2-methylsulfonylethyl)-1H-pyrrolo[2,3-b]pyridine-2-carboxamide] | < 5 | < 5 | < 10
9 | CN(C)CCNC(=O)c1cc2cc(-c3ccc(CC(=O)Nc4cc(C5(C(F)(F)F)CC5)on4)c(F)c3)cnc2[nH]1 [Example 108, N-[2-(dimethylamino)ethyl]-5-[3-fluoro-4-[2-oxo-2-[[5-[1-(trifluoromethyl)cyclo-propyl]isoxazol-3-yl]amino]ethyl]phenyl]-1H-pyrrolo[2,3-b]pyridine-2-carboxamide] | < 5 | < 5 | < 10
10 | Cn1cc(-c2n[nH]c3ncc(-c4ccc(CC(=O)Nc5cc(C(C)(C)C)on5)cc4)cc23)cn1 [Example 109, N-(5-tert-butylisoxazol-3-yl)-2-[4-[3-(1-methylpyrazol-4-yl)-1H-pyrazolo[3,4-b]pyridin-5-yl]phenyl]acetamide] | < 5 | < 5 | < 10
11 | CN(C)C1CCN(C(=O)c2cc3cc(-c4ccc(CC(=O)Nc5cc(C6(C(F)(F)F)CC6)on5)c(F)c4)cnc3[nH]2)C1 (stereo not drawn) [Example 110, 2-[4-[2-[3-(dimethylamino)pyrrolidine-1-carbonyl]-1H-pyrrolo[2,3-b]pyridin-5-yl]-2-fluoro-phenyl]-N-[5-[1-(trifluoro-methyl)cyclopropyl]isoxazol-3-yl]acetamide] | < 5 | < 5 | < 10
12 | O=C(Cc1ccc(-c2cnc3[nH]c(C(=O)N4CC(O)C4)cc3c2)cc1F)Nc1cc(C2(C(F)(F)F)CC2)on1 [Example 111, 2-[2-fluoro-4-[2-(3-hydroxyazetidine-1-carbonyl)-1H-pyrrolo[2,3-b]pyridin-5-yl]phenyl]-N-[5-[1-(trifluoro-methyl)cyclopropyl]isoxazol-3-yl]acetamide] | < 5 | < 5 | < 10

Next, values leading:

Row | Kd (FLT3 kinase) [nM] | Kd (KIT kinase) [nM] | IC50 (FLT3-ITD) [nM] | SMILES
13 | < 5 | < 5 | < 10 | CCOc1cc2ncc(-c3ccc(CC(=O)Nc4cc(C5(C(F)(F)F)CC5)on4)c(F)c3)cc2cc1OC [Example 86, 2-(4-(7-ethoxy-6-methoxyquinolin-3-yl)-2-fluorophenyl)-N-(5-(1-(trifluoromethyl)cyclopropyl)isoxazol-3-yl)acetamide]
14 | < 5 | < 5 | < 10 | COc1cc2cc(-c3ccc(CC(=O)Nc4cc(C5(C(F)(F)F)CC5)on4)c(F)c3)cnc2cc1OCCO [Example 88, 2-(2-fluoro-4-(7-(2-hydroxyethoxy)-6-methoxyquinolin-3-yl)phenyl)-N-(5-(1-(trifluoromethyl)cyclopropyl)isoxazol-3-yl)acetamide]
15 | < 5 | < 5 | < 10 | COc1cc2nc(-c3ccc(CC(=O)Nc4cc(C5(C(F)(F)F)CC5)on4)c(F)c3)cnc2cc1OC1CN(C)C1 [Example 90, 2-(2-fluoro-4-(7-methoxy-6-((1-methylazetidin-3-yl)oxy)quinoxalin-2-yl)phenyl)-N-(5-(1-(trifluoromethyl)cyclopropyl)isoxazol-3-yl)acetamide]
16 | < 5 | < 5 | < 10 | COc1cc2cc(-c3ccc(CC(=O)Nc4cc(C(C)(C)C(F)(F)F)on4)c(F)c3)cnc2cc1OCCO [Example 91, 2-(2-fluoro-4-(7-(2-hydroxyethoxy)-6-methoxyquinolin-3-yl)phenyl)-N-(5-(1,1,1-trifluoro-2-methylpropan-2-yl)isoxazol-3-yl)acetamide]
17 | < 5 | < 5 | < 10 | CC(C)(C)c1cc(NC(=O)Cc2ccc(-c3cnc4[nH]cc(C5(O)COC5)c4c3)cc2)no1 [Example 97, N-(5-tert-butylisoxazol-3-yl)-2-[4-[3-(3-hydroxyoxetan-3-yl)-1H-pyrrolo[2,3-b]pyridin-5-yl]phenyl]acetamide]
18 | < 5 | < 5 | < 10 | O=C(Cc1ccc(-c2cnc3nn4c(c3c2)OC(CO)C4)cc1F)Nc1cc(C2(C(F)(F)F)CC2)on1 (stereo not drawn) [Example 98, 2-[2-fluoro-4-[2-(hydroxy-methyl)-2,3-dihydro-oxazolo[3,4]pyrazolo[1,3-b]pyridin-8-yl]phenyl]-N-[5-[1-(trifluoro-methyl)cyclopropyl]isoxazol-3-yl]acetamide]
